We go through six molecules from patent US7666879B2, “Imidazo[1,2-A]pyridine compounds as VEGF-R2 inhibitors” (Eli Lilly and Company, priority 2005, dated 2010).

The target in one assay is T1, VEGFR2 (KDR) (Homo sapiens, UniProt P35968).
T1 construct: The isolated catalytic domain (Amino Acids 807-1356) of VEGFR2; 6xHis (N); made in house; host or cells: Sf9 insect cells (baculovirus, pFASTBac-HIS)
The experiment in a line: KDR-CD in vitro autophosphorylation kinase assay. Type of assay: biochemical. The following applies: 30 minute preincubation of compound and enzyme; average of at least two separate determinations; 1 μM ATP. As to the method:
The following assay is performed to measure the IC50 values of inhibition of phosphorylation of VEGF-R2 with compounds of the present invention.
Autophosphorylation Enzyme Assay
A. VEGFR2 (KDR) cloning and purification.
The isolated catalytic domain (Amino Acids 807-1356) of VEGFR2 (KDR-CD, cloned from a human heart cDNA library) is cloned by standard PCR procedures (pCR-Script to make plasmid P340) as a BamHI/HindIII fragment using the following primers: Upper: 5′-[…]-3′ and Lower: 5′-[…]-3′, its nucleotide sequence is verified and it is subcloned into the pFASTBac-HIS™ vector system (Gibco-BRL) (to give plasmid B344) for baculovirus expression. (Carroll, et al., J. Biol. Chem, 268, 12837-42 (1993). KDR-CD is expressed as an N-terminal 6×HIS fusion protein in Sf9 cells (Gibco-BRL) and purified according to standard affinity chromatography protocols (For example, Amersham Pharmacia Biotech: Affinity Chromatography Principles and Methods #18-1022-29). Briefly, 15-25 g pellets are lysed in lysis buffer (50 mM Tris pH 7.5, 150 mM NaCl, 0.5% NP40 (CalbioChem) with freshly added 20 mM -mercaptoethanol, 10 mM imidazole, 1 mM PMSF(protease inhibitor (phenylmethanesulfonyl fluoride) from Sigma), 1×EDTA-free complete protease inhibitor (Boehringer Mannheim)) on ice for 30 minutes. The cell lysates are cleared by centrifugation at 30,000 g for 20 minutes at 4° C., filtered through a […] and applied to a NiNTA™ column (Qiagen). Unbound protein is removed with successive RIPA buffer washes (50 mM Tris pH 7.5, 150 mM NaCl, 1% NP40, 1 mM EDTA, 0.25% sodium deoxycholate, 20 mM -mercaptoethanol), lysis buffer washes and finally 1× kinase buffer (KB) washes (100 mM HEPES pH 7.5, 10 mM MnCl2, 5 mM -mercaptoethanol). KDR protein is eluted in 1× KB containing a linear gradient of 200 mM imidazole over 10 column volumes. The peak fractions (based on a SDS-PAGE gel analysis) are combined, concentrated by Centricon™ to ˜1 mg/mL and desalted over an HR26/10 desalting column (Amersham Pharmacia) in 1× KB. This KDR prep is estimated to be ˜40% pure with only KDR tyrosine kinase activity detectable by anti-phosphotyrosine western analysis following the in vitro autophosphorylation reaction.
B. KDR-CD In Vitro Autophosphorylation Kinase Assay
Kinase reactions contain 1 μg total protein in 40 μL reaction volume containing 4% (v/v) DMSO final concentration, 1 μM ATP, 1 uCi/rxn ^33P-ATP (from NEN) in 1×KB. A compound dilution series of 20 μM to 1.0 nM is added to the above reaction to determine compound activity; test compound may be pre-incubated with KDR enzyme for up to 30 minutes at 30° C. prior to addition of the radiolabel. The radiolabeling reaction is carried out at 30° C. for 20 minutes before adding 100 μL 25% TCA with 3 mM ATP to stop the reaction, then precipitated with 50 μL 1 mg/mL BSA. The quenched reactions are transferred to MultiScreen™-FC plates (Millipore) and incubated for 1 hour at room temperature. The plates are filtered, washed 3× with 250 μL 10% TCA and blotted dry. MicroScint™20 (Packard) is added and the plate is counted on a Wallac Microbeta™. Dougher-Vermazen, M. et al., Biochem Biophys Res Commun 205(1): 728-738 (1994). The IC50 values are calculated from a logistic 4-parameter curve fit.
All values are determined using a 30 minute preincubation of compound and enzyme prior to initiating the labeling reaction and represent the average of at least two separate determinations: […]

The test system of assay [1] is PC-3 human prostate adenocarcinoma cells. In words: In vivo efficacy in PC-3 prostate tumor xenografts. The arrangement: species or system mice; key to Mean Tumor Volume: mg, volume calculated as l×w^2×0.536 from caliper diameters. The following applies: for Signif. (tumor volume vs vehicle control, two-way ANOVA) / Mean Tumor Volume: oral gavage. How it is done: In Vivo Efficacy in PC-3 Prostate Tumor Xenografts
Male SCID mice (Fox Chase, Taconic laboratories) are implanted s.c. in the rear flank with 0.2 mL of a cell suspension prepared in serum-free media containing 5×10^6 PC-3 human prostate adenocarcinoma cells (obtained from ATCC). Example 130 is prepared as a suspension in 1% CMC/0.25% Tween 80 and administered by oral gavage for 21 days beginning after tumors reach approximately 150-200 mg (volume calculated by l×w^2×0.536 where l is the larger and w is the smaller of perpendicular diameters determined by caliper measurement). Example 130 is administered twice daily (12 hours apart) for the 15, 7.5, and 3.75 mg/kg doses while the 30 mg/kg dose is given once daily. Groups consists of 8 mice each and one group receives 0.2 mL of the CMC/Tween vehicle twice daily as a control.

Structures are written as SMILES.

T1 sequence (P35968 807-1356): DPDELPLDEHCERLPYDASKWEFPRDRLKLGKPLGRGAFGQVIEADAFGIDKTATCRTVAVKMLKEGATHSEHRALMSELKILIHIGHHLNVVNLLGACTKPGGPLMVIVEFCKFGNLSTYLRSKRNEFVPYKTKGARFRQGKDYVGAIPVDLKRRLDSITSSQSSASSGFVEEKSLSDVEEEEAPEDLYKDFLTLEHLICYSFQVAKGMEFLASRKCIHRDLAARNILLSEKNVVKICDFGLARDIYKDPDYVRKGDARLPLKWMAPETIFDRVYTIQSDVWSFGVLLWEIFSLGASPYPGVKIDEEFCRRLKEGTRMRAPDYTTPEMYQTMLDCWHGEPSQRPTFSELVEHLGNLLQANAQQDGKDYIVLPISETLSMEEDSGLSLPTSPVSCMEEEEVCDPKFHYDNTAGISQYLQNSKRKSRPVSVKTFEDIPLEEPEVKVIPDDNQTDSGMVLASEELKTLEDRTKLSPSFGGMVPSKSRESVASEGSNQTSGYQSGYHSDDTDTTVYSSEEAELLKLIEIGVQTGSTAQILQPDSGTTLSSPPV

`O=C(Cc1ccc(-c2cnc3cc(-c4ccncc4)ccn23)cc1)Nc1cccc(C(F)(F)F)c1` [Example 173, 2-[4-(7-Pyridin-4-yl-imidazo[1,2-a]pyridin-3-yl)-phenyl]-N-(3-trifluoromethyl-phenyl)-acetamide] had an IC50 at VEGFR2 (KDR) of 26 nM.
In the case of `CC(C)(C)c1cnc(NC(=O)NCc2ccc(-c3cnc4cc(-c5ccncc5)ccn34)cc2)s1` [Example 39, 1-(5-tert-Butyl-thiazol-2-yl)-3-[4-(7-pyridin-4-yl-imidazo[1,2-a]pyridin-3-yl)-benzyl]-urea, methane sulfonate], the concentration for half-maximal inhibition (IC50) against VEGFR2 (KDR) is 28 nM.
The same measure, in the same setting: the result for `CC(C)(C)c1cc(NC(=O)Cc2ccc(-c3cnc4cc(-c5cn[nH]c5)ccn34)cc2)no1` [Example 303, N-(5-tert-Butyl-isoxazol-3-yl)-2-{4-[7-(1H-pyrazol-4-yl)-imidazo[1,2-a]pyridin-3-yl]-phenyl}-acetamide] reads 46 nM.
With `CC(C)(C)c1cc(NC(=O)Cc2ccc(-c3cnc4cc(-c5ccc(S(C)(=O)=O)cc5)ccn34)cc2F)no1` [Example 196, N-(5-tert-Butyl-isoxazol-3-yl)-2-{2-fluoro-4-[7-(4-methanesulfonyl-phenyl)-imidazo[1,2-a]pyridin-3-yl]-phenyl}-acetamide], the IC50 against VEGFR2 (KDR) came out at 106 nM.
The molecule `CC(C)(C)c1cc(NC(=O)Cc2ccc(-c3cnc4cc(-c5ccncc5)ccn34)cc2)ncn1` [Example 289, N-(6-tert-Butyl-pyrimidin-4-yl)-2-[4-(7-pyridin-4-yl-imidazo[1,2-a]pyridin-3-yl)-phenyl]-acetamide] had a half-maximal inhibitory concentration (IC50) against VEGFR2 (KDR) of 41 nM.
In the case of `CC(C)(C)c1cc(NC(=O)Nc2ccc(-c3cnc4cc(-c5ccncc5)ccn34)cc2F)no1` [Example 130, 1-(5-tert-Butyl-isoxazol-3-yl)-3-[2-fluoro-4-(7-pyridin-4-yl-imidazo[1,2-a]pyridin-3-yl)-phenyl]-urea], the “Signif. (tumor volume vs vehicle control, two-way ANOVA)” value is on record as “** (**: 0.001 < p <= 0.01)” in assay [1] (3.75 mg/kg twice daily, Day 55); “*** (***: p <= 0.001)” in assay [1] (3.75 mg/kg twice daily, Day 57); “*** (***: p <= 0.001)” in assay [1] (7.5 mg/kg twice daily, Day 55); “*** (***: p <= 0.001)” in assay [1] (7.5 mg/kg twice daily, Day 57); “*** (***: p <= 0.001)” in assay [1] (15 mg/kg twice daily, Day 55); “*** (***: p <= 0.001)” in assay [1] (15 mg/kg twice daily, Day 57). Besides, the “Signif. (tumor volume vs vehicle control, two-way ANOVA)” value in assay [1] (30 mg/kg once daily, Day 55) was “*** (***: p <= 0.001)”; in assay [1] (30 mg/kg once daily, Day 57) it was “*** (***: p <= 0.001)”. The “Mean Tumor Volume” value in assay [1] (3.75 mg/kg twice daily, Day 55, PC-3 xenograft in male SCID mice) is reported as 268.1; in assay [1] (3.75 mg/kg twice daily, Day 57, PC-3 xenograft in male SCID mice) it was 310.1; in assay [1] (7.5 mg/kg twice daily, Day 55, PC-3 xenograft in male SCID mice), 100.8; in assay [1] (7.5 mg/kg twice daily, Day 57, PC-3 xenograft in male SCID mice), 86.3; in assay [1] (15 mg/kg twice daily, Day 55, PC-3 xenograft in male SCID mice) it was 67.7; in assay [1] (15 mg/kg twice daily, Day 57, PC-3 xenograft in male SCID mice) it was 62.2. The “Mean Tumor Volume” value in assay [1] (30 mg/kg once daily, Day 55, PC-3 xenograft in male SCID mice) is on record as 95.7; in assay [1] (30 mg/kg once daily, Day 57, PC-3 xenograft in male SCID mice), 86.8. For the same molecule, the “tumor volume, treatment groups versus control group at study termination” value in assay [1] (male SCID mice, oral gavage for 21 days, 15, 7.5, 3.75 mg/kg twice daily, 30 mg/kg once daily, two-way ANOVA) is given as “statistically different from the control group (p<0.001)”. The same molecule registered an IC50 on VEGFR2 (KDR) of 42 nM.
